Experimental data reported in patent US20160031878A1, “RADIOLABELED COMPOUNDS” (Hoffmann-La Roche Inc., priority 2013, published 2016).

Target: T1, human PDE10A full length (Homo sapiens, UniProt Q9Y233)
T1 construct: purchased Enzo Life Science, Lausen, Switzerland SE-534
Assay: human PDE10A full length Scintillation Proximity Assay (SPA)
Type: biochemical
Settings: 50 nM cGMP + 50 nM [3H]-cGMP, 20 min at room temperature, read-out: PDE10A inhibition IC50
Protocol: The following test was carried out in order to determine the activity of the compounds of the present invention. PDE10A activity of the compounds of the present invention was determined using a Scintillation Proximity Assay (SPA)-based method similar to the one previously described (Fawcett, L. et al., Proc. Natl. Acad. Sci. USA 2000, 97(7), 3702-3707).
The human PDE10A full length assay was performed in 96-well micro titer plates. The reaction mixture of 50 μl contained 20 mM HEPES pH=7.5/10 mM MgCl2/0.05 mg/ml BSA (Sigma cat. # A-7906), 50 nM cGMP (Sigma, cat. # G6129) and 50 nM [^3H]-cGMP (GE Healthcare, cat. # TRK392 S.A. 13.2 Ci/mmol), 3.75 ng/well PDE10A enzyme (Enzo Life Science, Lausen, Switzerland cat # SE-534) with or without a specific test compound. A range of concentrations of the potential inhibitor was used to generate data for calculating the concentration of inhibitor resulting in 50% of the effect (e.g. IC50, the concentration of the competitor inhibiting PDE10A activity by 50%). Non-specific activity was tested without the enzyme. The reaction was initiated by the addition of the substrate solution (cGMP and [^3H]-cGMP) and allowed to progress for 20 minutes at room temperature. […] Afterwards, radioactive counts were measured on a Perkin Elmer TopCount Scintillation plate reader.

T1 sequence (Q9Y233 1-779 isoform Q9Y233-1): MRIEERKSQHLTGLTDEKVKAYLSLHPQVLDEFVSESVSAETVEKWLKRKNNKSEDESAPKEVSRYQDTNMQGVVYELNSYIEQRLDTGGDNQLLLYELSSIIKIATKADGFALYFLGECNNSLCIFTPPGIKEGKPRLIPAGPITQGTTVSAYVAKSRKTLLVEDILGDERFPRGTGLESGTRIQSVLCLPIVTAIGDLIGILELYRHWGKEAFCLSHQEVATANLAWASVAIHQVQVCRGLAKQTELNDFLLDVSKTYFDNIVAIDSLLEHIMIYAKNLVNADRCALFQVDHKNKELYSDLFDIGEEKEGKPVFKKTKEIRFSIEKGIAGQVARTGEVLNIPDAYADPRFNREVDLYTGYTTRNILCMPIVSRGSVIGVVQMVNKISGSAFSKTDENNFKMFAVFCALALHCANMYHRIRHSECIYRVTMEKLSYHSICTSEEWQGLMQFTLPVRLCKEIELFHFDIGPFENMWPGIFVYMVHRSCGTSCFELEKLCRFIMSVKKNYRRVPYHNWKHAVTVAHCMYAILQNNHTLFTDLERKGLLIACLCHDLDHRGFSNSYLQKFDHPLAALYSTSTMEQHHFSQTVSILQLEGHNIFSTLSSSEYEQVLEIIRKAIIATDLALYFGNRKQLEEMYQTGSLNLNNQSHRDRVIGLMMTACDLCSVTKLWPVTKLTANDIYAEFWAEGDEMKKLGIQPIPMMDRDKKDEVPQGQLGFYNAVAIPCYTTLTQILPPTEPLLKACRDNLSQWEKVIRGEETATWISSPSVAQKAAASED

## CN(CCF)C(=O)c1cnn(C)c1C(=O)Nc1ccn2nc(-c3ccccc3)nc2c1 [Compound 4, 2-methyl-2H-pyrazole-3,4-dicarboxylic acid 4-[(2-fluoro-ethyl)-methyl-amide]3-[(2-phenyl-[1,2,4]triazolo[1,5-a]pyridin-7-yl)-amide]]
  IC50: 0.94 nM

## COc1cccc(-c2nc3cc(NC(=O)c4c(C(=O)N5CCOCC5)cnn4C)ccn3n2)c1 [Compound 21, 2-Methyl-4-(morpholine-4-carbonyl)-2H-pyrazole-3-carboxylic acid [2-(3-methoxy-phenyl)-[1,2,4]triazolo[1,5-a]pyridin-7-yl]-amide]
  IC50: 5.1 nM
